This is an account of results in patent US10925282B2, “Enhanced kill of microorganisms” (CONOCOPHILLIPS COMPANY, priority 2017, dated 2021).

Experiment [1] concerns freshwater denitrifying culture. The following applies: 20 mM; 30-minute exposure; cited from earlier work.
Experiment [2] relates to Barnett sulfate reducing bacteria (SRB) culture.
Setting [3] is: 1 mM nitrite, approximately 24 hours.

Where two headings read alike, the source gives them in different places. A value given as a limit tells only on which side of the number the result lay.

With `[O]=[W](=[O])([O-])[O-]` [tungstate], the “reduction of ATP levels” value in experiment [1] is 41%.

On to `O=NO` [nitrite], for which the cATP concentration result in experiment [2] (setting [3]) is given as “below 1000 picograms per mL”. Besides, the “reduction in cATP concentrations” value in experiment [2] (setting [3]) is above 90%; in experiment [2] (2 mM nitrite, same time period (approximately 24 hours)), above 99%. In experiment [2] (1 mM nitrite, initial microbial equivalency 1.0×10^7 cells/mL, 30° C.), the “time required to reach a cATP concentration below 1000 picograms per mL” value was “Approximately 24 hours”.
